Experimental data as given in PubChem BioAssay AID1845207 (Molecular Pharmacology Branch, DTP, NCI, 2023).

Tested on: NCI-H1876 tumor spheroid viability
Test: Anticancer human tumor NCI-H1876 cell line growth inhibition;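 further: spheroids exposed to compounds for seven days before the viability read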;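 on viability, T/C: percent of DMSO vehicle control viability so 100% = vehicle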
Conditions: spheroids with HUVEC and MSC; for IC50: curve of first compound; for viability, T/C: stronger effect = lower value
Procedure, shortened: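 Single agents and combinations were tested on spheroids built from tumor cells plus HUVEC and hMSC, at half-log dilutions starting at or near clinical Cmax, else 10 microM; final DMSO 0.25% (v/v).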

[1] = second compound 0.003 µM, first compound 0.0316 µM
[2] = second compound 0.003 µM, first compound 0.1 µM
[3] = second compound 0.003 µM, first compound 0.316 µM
[4] = second compound 0.003 µM, first compound 1 µM
[5] = second compound 0.003 µM, first compound 3.16 µM
[6] = second compound 0.003 µM, first compound 10 µM
[7] = second compound 0.00949 µM, first compound 0.0316 µM
[8] = second compound 0.00949 µM, first compound 0.1 µM
[9] = second compound 0.00949 µM, first compound 0.316 µM
[10] = second compound 0.00949 µM, first compound 1 µM
[11] = second compound 0.00949 µM, first compound 3.16 µM
[12] = second compound 0.00949 µM, first compound 10 µM
[13] = second compound 0.03 µM, first compound 0.0316 µM
[14] = second compound 0.03 µM, first compound 0.1 µM
[15] = second compound 0.03 µM, first compound 0.316 µM
[16] = second compound 0.03 µM, first compound 1 µM
[17] = second compound 0.03 µM, first compound 3.16 µM
[18] = second compound 0.03 µM, first compound 10 µM
[19] = second compound 0.0949 µM, first compound 0.0316 µM
[20] = second compound 0.0949 µM, first compound 0.1 µM
[21] = second compound 0.0949 µM, first compound 0.316 µM
[22] = second compound 0.0949 µM, first compound 1 µM
[23] = second compound 0.0949 µM, first compound 3.16 µM
[24] = second compound 0.0949 µM, first compound 10 µM
[25] = second compound 0.3 µM, first compound 0.0316 µM
[26] = second compound 0.3 µM, first compound 0.1 µM
[27] = second compound 0.3 µM, first compound 0.316 µM
[28] = second compound 0.3 µM, first compound 1 µM
[29] = second compound 0.3 µM, first compound 3.16 µM
[30] = second compound 0.3 µM, first compound 10 µM

SMILES: [2H]c1nc(C)nc([2H])c1-c1cc(NC[C@@H](C)c2cccc3c(C(=O)NC)ccnc23)ncn1 + CC[C@@]1(O)C(=O)OCc2c1cc1n(c2=O)Cc2cc3c(CN(C)C)c(O)ccc3nc2-1
- IC50 (second compound 0.003 µM): > 10000 nM
- IC50 (second compound 0.00949 µM): < 31.6 nM
- IC50 (second compound 0.03 µM): < 31.6 nM
- IC50 (second compound 0.0949 µM): < 31.6 nM
- IC50 (second compound 0.3 µM): < 31.6 nM
- viability, T/C [1]: 93.3%
- viability, T/C [2]: 89.6%
- viability, T/C [3]: 93.9%
- viability, T/C [4]: 87.1%
- viability, T/C [5]: 85.1%
- viability, T/C [6]: 78.5%
- viability, T/C [7]: 25.2%
- viability, T/C [8]: 22.2%
- viability, T/C [9]: 24%
- viability, T/C [10]: 21.4%
- viability, T/C [11]: 19.7%
- viability, T/C [12]: 17.1%
- viability, T/C [13]: 3.65%
- viability, T/C [14]: 4.05%
- viability, T/C [15]: 3.87%
- viability, T/C [16]: 4.16%
- viability, T/C [17]: 4.24%
- viability, T/C [18]: 4.06%
- viability, T/C [19]: 2.96%
- viability, T/C [20]: 2.98%
- viability, T/C [21]: 2.95%
- viability, T/C [22]: 3.01%
- viability, T/C [23]: 2.71%
- viability, T/C [24]: 3.38%
- viability, T/C [25]: 2.42%
- viability, T/C [26]: 2.48%
- viability, T/C [27]: 2.48%
- viability, T/C [28]: 2.74%
- viability, T/C [29]: 2.32%
- viability, T/C [30]: 2.21%

SMILES: COc1cc(C)[nH]c(=O)c1CN1CCc2c(Cl)cc(C(OC)C3COC3)c(Cl)c2C1=O (stereo not given) + COc1cc2c(cc1O)CCNC21CSC2c3c(OC(C)=O)c(C)c4c(c3C(COC1=O)N1C(O)C3Cc5cc(C)c(OC)c(O)c5C(C21)N3C)OCO4
- IC50 (second compound 30 pM): > 10000 nM
- IC50 (second compound 94.9 pM): > 10000 nM
- IC50 (second compound 0.0003 µM): < 31.6 nM
- IC50 (second compound 0.000949 µM): < 31.6 nM
- IC50 (second compound 0.003 µM): < 31.6 nM
- viability, T/C (second compound 30 pM, first compound 0.0316 µM): 99.7%
- viability, T/C (second compound 30 pM, first compound 0.1 µM): 104%
- viability, T/C (second compound 30 pM, first compound 0.316 µM): 96.9%
- viability, T/C (second compound 30 pM, first compound 1 µM): 97.6%
- viability, T/C (second compound 30 pM, first compound 3.16 µM): 94.5%
- viability, T/C (second compound 30 pM, first compound 10 µM): 90.5%
- viability, T/C (second compound 94.9 pM, first compound 0.0316 µM): 91.6%
- viability, T/C (second compound 94.9 pM, first compound 0.1 µM): 89.6%
- viability, T/C (second compound 94.9 pM, first compound 0.316 µM): 89.5%
- viability, T/C (second compound 94.9 pM, first compound 1 µM): 86.9%
- viability, T/C (second compound 94.9 pM, first compound 3.16 µM): 81.9%
- viability, T/C (second compound 94.9 pM, first compound 10 µM): 76.7%
- viability, T/C (second compound 0.0003 µM, first compound 0.0316 µM): 22%
- viability, T/C (second compound 0.0003 µM, first compound 0.1 µM): 21.2%
- viability, T/C (second compound 0.0003 µM, first compound 0.316 µM): 23.9%
- viability, T/C (second compound 0.0003 µM, first compound 1 µM): 20.5%
- viability, T/C (second compound 0.0003 µM, first compound 3.16 µM): 19.1%
- viability, T/C (second compound 0.0003 µM, first compound 10 µM): 14%
- viability, T/C (second compound 0.000949 µM, first compound 0.0316 µM): 2.52%
- viability, T/C (second compound 0.000949 µM, first compound 0.1 µM): 2.44%
- viability, T/C (second compound 0.000949 µM, first compound 0.316 µM): 2.38%
- viability, T/C (second compound 0.000949 µM, first compound 1 µM): 2.44%
- viability, T/C (second compound 0.000949 µM, first compound 3.16 µM): 2.06%
- viability, T/C (second compound 0.000949 µM, first compound 10 µM): 2.03%
- viability, T/C [1]: 0.75%
- viability, T/C [2]: 0.84%
- viability, T/C [3]: 0.98%
- viability, T/C [4]: 0.57%
- viability, T/C [5]: 0.7%
- viability, T/C [6]: 0.93%

SMILES: COc1cc(C)[nH]c(=O)c1CN1CCc2c(Cl)cc(C(OC)C3COC3)c(Cl)c2C1=O (stereo not given) + CC[C@@]1(O)C(=O)OCc2c1cc1n(c2=O)Cc2cc3c(CN(C)C)c(O)ccc3nc2-1
- IC50 (second compound 0.003 µM): > 10000 nM
- IC50 (second compound 0.00949 µM): < 31.6 nM
- IC50 (second compound 0.03 µM): < 31.6 nM
- IC50 (second compound 0.0949 µM): < 31.6 nM
- IC50 (second compound 0.3 µM): < 31.6 nM
- viability, T/C [1]: 92.3%
- viability, T/C [2]: 88.3%
- viability, T/C [3]: 82.6%
- viability, T/C [4]: 79.3%
- viability, T/C [5]: 80.6%
- viability, T/C [6]: 73.7%
- viability, T/C [7]: 32.3%
- viability, T/C [8]: 19.7%
- viability, T/C [9]: 19.2%
- viability, T/C [10]: 19.4%
- viability, T/C [11]: 17.3%
- viability, T/C [12]: 18.6%
- viability, T/C [13]: 3.49%
- viability, T/C [14]: 3.03%
- viability, T/C [15]: 3.24%
- viability, T/C [16]: 2.91%
- viability, T/C [17]: 3.73%
- viability, T/C [18]: 3.6%
- viability, T/C [19]: 2.58%
- viability, T/C [20]: 2.48%
- viability, T/C [21]: 2.58%
- viability, T/C [22]: 2.45%
- viability, T/C [23]: 2.45%
- viability, T/C [24]: 3.12%
- viability, T/C [25]: 2.06%
- viability, T/C [26]: 2.39%
- viability, T/C [27]: 2.29%
- viability, T/C [28]: 1.79%
- viability, T/C [29]: 2.16%
- viability, T/C [30]: 2.06%
